Reference: patent US20230051263A1, “DEVICE FOR RAPID AND QU[…] OF DRUGS OF ABUSE IN SWEAT” (THE REGENTS OF THE UNIVERSITY OF MICHIGAN, priority 2020, published 2023)

What was measured:
Assay type in all cases: binding
methadone antibody = experiment: Cross-reactivity of methadone sensor (capillary competitive chemiluminescent ELISA); settings: target analyte methadone; challenging analyte in sweat 1.6-10,000 ng/mL vs methadone-HRP 2000x; IC50 ratio Eq. (1)
From the text: (§1) In order to develop a sensor array that can quantify the presence of multiple analytes simultaneously, it is important to examine their cross-reactivity. Using the methadone as an example, methadone was the target analyte and channels of the capillary sensor were first coated with methadone antibody. After blocking, serial concentrations of the challenging analytes, METH, amphetamine, or THC, were individually mixed with methadone-HRP and withdrawn into the capillaries. The challenging analyte molecules (e.g., METH) competed with methadone-HRP for the methadone antibody coated on the capillary surface. Cross-reactivity is calculated as follows: […]
(§2) In order to perform multiplexed detection of drugs in sweat, first the cross-reactivity of the capillary-based sensors is examined. The capillary coated with the antibody intended for detecting one particular drug (i.e., target analyte) is challenged with various concentrations of the other three drugs (i.e., challenging analytes). Here, the concentrations of 10,000 ng/mL, 5,000 ng/mL, 400 ng/mL, 80 ng/mL, and 1.6 ng/mL for the challenging analytes in sweat are used. […] One exception is the 3.1% cross-reactivity of METH sensor to amphetamine, which is due to the structural similarities between METH and amphetamine.
(§3) The final concentration of competing drug conjugates was 2000×, 4000×, 15000×, and 4000× for methadone-HRP, METH-HRP, amphetamine-HRP, and THC-HRP, respectively, in corresponding sensors.

[1] = tested on: tetrahydrocannabinol antibody; experiment: Cross-reactivity of THC sensor (capillary competitive chemiluminescent ELISA); settings: target analyte THC; challenging analyte in sweat 1.6-10,000 ng/mL vs THC-HRP 4000x; IC50 ratio Eq. (1)
From the text: as §1, §2, §3

[2] = tested on: corresponding antibody coated on capillary inner surface; experiment: Detection of individual drugs in artificial sweat, inhibition curves (capillary competitive chemiluminescent ELISA); settings: y = a + b/(1+(x/x0)^p), x in ng/mL; used as calibration curve
methamphetamine antibody = experiment: Cross-reactivity of METH sensor (capillary competitive chemiluminescent ELISA); settings: target analyte METH, challenging analyte in sweat 1.6-10,000 ng/mL vs METH-HRP 4000x, IC50 ratio Eq. (1)
From the text: as §1, §2, §3

amphetamine antibody = experiment: Cross-reactivity of amphetamine sensor (capillary competitive chemiluminescent ELISA); settings: target analyte amphetamine; challenging analyte in sweat 1.6-10,000 ng/mL vs amphetamine-HRP 15000x; IC50 ratio Eq. (1)
From the text: as §1, §2, §3

Compound | Cross-reactivity (100%) (methadone antibody) [%] | Cross-reactivity (100%) [1] [%] | midpoint parameter of logistic fit of inhibition curve B/B0 (%) [2] [ng/mL] | Cross-reactivity (100%) (methamphetamine antibody) [%] | Cross-reactivity (100%) (methamphetamine antibody; listed as amphetamine) [%] | Cross-reactivity (100%) (amphetamine antibody) [%]
CC(N)Cc1ccccc1 (stereo not shown) [Amphetamine, amphetamine] | <0.001 | <0.4 | 1473.04 | 3.1 | 3.1 | –
CN[C@@H](C)Cc1ccccc1 [METH, methamphetamine] | <0.001 | <0.4 | 7.63 | – | – | 0.07
CCC(=O)C(CC(C)N(C)C)(c1ccccc1)c1ccccc1 (stereo not shown) [Methadone, methadone] | – | <0.4 | – | <0.04 | – | <0.02
CCCCCc1cc(O)c2c(c1)OC(C)(C)[C@@H]1CCC(C)=C[C@@H]21 [THC, tetrahydrocannabinol] | <0.001 | – | 5.95 | <0.04 | – | <0.02
